Data: patent publication US11919856B2, “Compounds” (UCL BUSINESS LTD, priority 2018, dated 2024)

Legend:
Z α1-antitrypsin [1] = biological target: T1, Z α1-antitrypsin (Homo sapiens, UniProt P01009, E366K/V237A); experiment: Circulating monomeric Z α1-antitrypsin in plasma of Z α1-antitrypsin transgenic mice; assay type: in vivo; design: a random insertion of the human Z α1-antitrypsin gene; from tissue; host or cells: liver and plasma of Z α1-antitrypsin transgenic mice (human Z transgene)
Experimental: In order to investigate the therapeutic potential of Compound 1 in Z α1-antitrypsin deficiency, the compound was tested in a transgenic mouse model engineered with a random insertion of the human Z α1-antitrypsin gene (Teckman et al. Am J Physiol Gastrointest Liver Physiol. 2004; 286:G851-G62). To determine a suitable dose regimen for Compound 1 in these studies the total and unbound exposure in transgenic mice was estimated in an in silico model.
To explore the PK-PD relationship of Compound 1, Z α1-antitrypsin transgenic animals were dosed with 100, 30 or 10 mg/kg Compound 1 three times a day and on day 6 blood and liver were harvested at 3 hr (˜Cmax) and 8 hr (Cmin) after the dose for the measurement of total and free drug in both tissues. Blood was also harvested for the measurement of monomeric Z α1-antitrypsin in plasma. Total concentrations of Compound 1 were determined by specific LC-MS/MS assay and the free unbound drug in both tissues was determined using equilibrium dialysis and used to derive unbound concentrations.
Recent work has shown that a significant fraction of the total Z α1-antitrypsin in the circulation is in the polymeric conformation (Tan et al. Eur Respir J. 2014; 43(5):1501-4). […] Monomeric Z α1-antitrypsin was measured in plasma samples following 6 days of dosing and levels were normalised to each animals' pre-dose control levels to account for the natural variation of Z α1-antitrypsin between animals. […]
Since Compound 1 blocks polymer formation in cells the effect of dosing Compound 1 on liver polymer levels was explored. […] On days 15 and 21 of dosing, changes of monomeric Z α1-antitrypsin plasma samples were determined as above, and increases of 7- to 8-fold over the pre-dosing baseline levels were observed, similar to the effect in animals dosed for 3 or 6 days, consistent with sustained target engagement through the dosing period. […] There was no difference observed in total liver polymer load via manual or quantitative scoring.

Z α1-antitrypsin [2] = biological target: T1, Z α1-antitrypsin; experiment: Secretion of Z α1-antitrypsin from iPSC-derived hepatocytes (ZZ genotype); assay type: cell-based; design: a random insertion of the human Z α1-antitrypsin gene; from tissue; host or cells: liver and plasma of Z α1-antitrypsin transgenic mice (human Z transgene)
Experimental: In order to confirm that the potency and efficacy of Compound 1 in CHO-TET-ON-Z-A1AT was a reasonable estimate of what could be expected in hepatocytes with endogenous levels of expression, the effect of Compound 1 on the secretion and polymerisation of Z α1-antitrypsin was measured in iPSC-derived hepatocytes with the ZZ α1-antitrypsin genotype (Yusa et al. Nature. 2011; 478:391-4).

T1 sequence (P01009 25-418 V237A/E366K): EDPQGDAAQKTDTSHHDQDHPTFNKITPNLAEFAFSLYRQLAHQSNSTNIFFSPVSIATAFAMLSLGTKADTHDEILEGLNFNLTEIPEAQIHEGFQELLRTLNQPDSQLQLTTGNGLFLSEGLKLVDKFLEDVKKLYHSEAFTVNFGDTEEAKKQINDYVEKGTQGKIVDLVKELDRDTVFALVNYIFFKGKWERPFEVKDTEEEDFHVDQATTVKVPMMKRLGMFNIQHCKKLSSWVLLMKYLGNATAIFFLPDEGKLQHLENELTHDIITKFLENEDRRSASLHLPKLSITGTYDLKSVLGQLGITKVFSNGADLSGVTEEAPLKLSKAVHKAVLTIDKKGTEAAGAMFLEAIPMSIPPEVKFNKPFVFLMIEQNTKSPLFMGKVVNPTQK

CCC[C@@H](NC(=O)c1cccc2c1CC(=O)N2)[C@@H](O)c1cccc(F)c1C [Compound 1, N-[(1S,2R)-1-(3-fluoro-2-methylphenyl)-1-hydroxypentan-2-yl]-2-oxo-2,3-dihydro-1H-indole-4-carboxamide]
increase in circulating Z α1-antitrypsin (Z α1-antitrypsin [1]; 30 mg/kg and 10 mg/kg three times a day, 6 days): significant, dose-dependent increases
increase of plasma concentrations of the serpin (Z α1-antitrypsin [1]; transgenic mouse model): up to 8 fold
increase in circulating levels of Z α1-antitrypsin (Z α1-antitrypsin [1]; within 3 days of dosing, maintained throughout the experiment): 7 fold
increase of secreted levels of Z α1-antitrypsin (Z α1-antitrypsin [2]): approximately 3 fold
EC50 (Z α1-antitrypsin [2]; read-out: pEC50, secretion of Z α1-antitrypsin (converted)): 0.316 µM
